Source: patent publication US20220257523A1, “COMPOSITE DRUG PARTICLES AND USES THEREOF” (The Regents of the University of Michigan, priority 2019, published 2022)

Assays:
[1] = system: primary subcutaneous human adipocytes; assay: Adipocyte lysis assay (MTS viability); type: cell-based
Procedure: The capability of the particle formulation to kill fat cells was tested by incubating them with primary subcutaneous human adipocytes. The primary subcutaneous human adipocytes cultured in 96-well plates were purchased from Zen-Bio (Research Triangle, NC). Upon arrival, 150 μl of the media was removed from each well, and the cells were incubated at 37° C. and 5% CO2. For the lysis assays, 150 μl of the salt solution or particle suspension of the known concentration in FBS free RPMI-medium were incubated for a known time-point. Afterward, the treatment solution was aspirated, the cells were washed with warm PBS, and 150 μl of a 1:25 dilution in 1×PBS of MTS assay cell titer (purchased from Promega Corporation, Madison, Wis.) was added to each well. Plates were incubated at 37° C. and 5% CO2 for 3 hr until the appearance of the orange color in the untreated control wells and the absorbance was measured at 490 nm. The cell viability was quantified via subtracting the background cell titer absorbance from the absorbance of the desired point and dividing it by the average signal of the untreated cells after subtracting the background.

[2] = system: inguinal fat pads of genetically obese mice; assay: In vivo lipolysis after subcutaneous injection into inguinal fat pad; design: species or system mice (B6.Cg-Lep^ob/J)
Procedure: Animal studies were conducted following the National Institute of Health guidelines for the care and use of laboratory animals and approved by the Institutional Animal Care and Use Committee (IACUC) of the University of Michigan. 8-10 week old female genetically obese (B6.Cg-Lep^ob/J) mice purchased from The Jackson Laboratory were used. The in vivo trials were replicated for 3 animals. All the animals had the same age and the average weight of the animals in each group were matched prior to the initiation of the study.
In vivo lipolysis assays were performed via subcutaneous injection of rhodamine-loaded deoxycholate microparticles into the inguinal fat pads of genetically obese mice alongside the salt solution and vehicle control. Genetically obese mice were anesthetized using isoflurane, shaved, and subcutaneously injected with 100 μL of the suspension of rhodamine-loaded deoxycholate particles or the solution of deoxycholate salt in saline (25 mg/mL) or vehicle control into their right inguinal fat pad. 100 μL of pure saline was injected into the left fat pad of the animals as the control. The weight and appearance of the animals was tracked over the course of two weeks. One group of the animals received a second dosage of particles on Day 7. After 14 days, the animals were euthanized, the right and left fat pad of the animals were removed, weighed, and fixed in 10% formalin solution overnight. Histology slides of the samples were prepared via paraffin embedding and standard hematoxylin and eosin staining. The histology slides were analyzed by blindfolded physicians and the digital scans were analyzed using QuPath software.

[3] = system: Human umbilical vein endothelial cells (HUVECs); assay: HUVEC cell lysis assay (MTS viability)
Procedure: After the desired time-point, the treatment solution/suspension was removed from the wells, the cells were washed with warm 1X phosphate buffered saline (PBS) and incubated with 1 ml of the 1:25 dilution of MTS assay cell titer (Promega, WI) in 1×PBS at 37° C. and 5% CO2 for 2 hr until the appearance of the orange color in the untreated control wells. The absorbance was then measured at 490 nm, and each condition was repeated in triplicate. The percentage of the cell viability was quantified via subtracting the background cell titer absorbance from the absorbance of the desired point and dividing it by the average signal of the untreated cells after subtracting the background.

| SMILES | cells killed ([1]; 1% solution in RPMI media) | time at which an ulcer developed in all of the animals ([2]; 100 μL of 25 mg/mL in saline s.c. into right inguinal fat pad) | skin bruising and inflammation at the injection site ([2]; 100 μL of 25 mg/mL in saline s.c. into right inguinal fat pad, particles rhodamine-loaded, one or two dosages) | local fat loss in the injected fat pad ([2]; at euthanasia 14 days post-injection, right versus left fat pad) | weight of the animals during the lipolytic treatment ([2]; over two weeks) | histology (H&E) of the right fat pad, evidence of fat lysis ([2]; s.c. injection into right inguinal fat pad) | cells killed ([3]; 0.01% solution in media, 1 hr) | cells still alive ([3]; 0.1% salt in 5% BSA, 3 hr) | cell death ([3]; 0.1% salt in media, 3 hr) | cells killed ([3]; 0.2% salt solution in media, 1 hr) | cells lysed ([3]; concentrations higher than 0.2%, 1 hr) | concentration enough to kill the fat cells ([1]; RPMI media, within 1 hr) |
| --- | --- | --- | --- | --- | --- | --- | --- | --- | --- | --- | --- | --- |
| C[C@H](CCC(=O)[O-])[C@H]1CC[C@H]2[C@@H]3[C@H](O)C[C@@H]4C[C@H](O)CC[C@]4(C)[C@H]3C[C@H](O)[C@]12C.[Na+] [sodium cholate] | all the cells |  |  |  |  |  |  |  |  |  |  |  |
| C[C@H](CCC(=O)[O-])[C@H]1CC[C@H]2[C@@H]3CC[C@@H]4C[C@H](O)CC[C@]4(C)[C@H]3C[C@H](O)[C@]12C.[Na+] [sodium deoxycholate] |  | 7-9 days post-injection | severe bruising and inflammation | visual evidence of local fat loss | No significant change | Crown-like structures and significant leukocyte infiltration | ~40% | around 25% | nearly all the cells | approximately 95% | all the cells | higher than 0.05% |
